Assay results as given in publication PMC9963438, “Emerging Effects of Resveratrol Derivatives in Cells Involved in Oral Wound Healing: A Preliminary Study” (International Journal of Molecular Sciences, 2023).

How the values were obtained:
[1] = system: human gingival fibroblasts (HGFs); assay: MTT cytocompatibility screening on HGFs, 24 h; format: cell-based; settings: for HGFs metabolic activity / cell viability (MTT): 10 µM, vs control (DMSO) and RSV; for HGFs cell viability (MTT): vs control and RSV
HGFs = assay: Toluidine blue staining, morphology and confluence of HGFs; format: cell-based, human; settings: 72 h; 1d and 1h 5 µM, RSV 10 µM
Procedure: The influence of 1d and 1h was evaluated on cells density and morphology by toluidine-blue staining. A total of 2 × 10^4 cells/well were cultured in 24-well plates and were incubated at 37 °C and 5% CO2 with tested compounds at 5 µM. After 48 and 72 h, adherent cells were fixed with 70% cold ethanol and stained with 1% toluidine blue and 1% borax (Sigma Aldrich, St. Louis, MO, USA). Cells were then observed by an inverted microscope connected with a camera at 40×, 100×, and 200× magnifications (Leica, Wild Heer-brugg, Wetzlar, Germany).

eNOS mRNA in HUVECs = assay: RT-qPCR of eNOS in HUVECs; format: cell-based, human; settings: RSV 10 µM, 48 and 72 h, time-dependent manner
Procedure: Total RNA was isolated using Trifast reagent (EuroClone) according to the manufacturer instructions from 3 × 10^5 cells/well treated with increasing concentrations of 1d and 1h for 48 h and 72 h. Complementary DNA (cDNA) was obtained using GoTaq® 2 Step RT-qPCR Kit (Promega, Madison, WI, USA) in accordance with the manufacturer’s instructions. RT-qPCR was carried out using SYBR Green (Promega) on the Quant Studio 7 Pro Real-Time PCR System (ThermoFisher, Waltham, MA, USA). The results were normalized to glyceraldehyde 3-phoshate dehydrogenase (GAPDH) for HUVECs and HGFs and to β-actin (βACT) for HOBs using the 2^−ΔΔCt method.

## Cc1ccc(S(=O)(=O)Nc2ccc(/C=C/c3ccccc3)cc2)cc1[N+](=O)[O-] [1c]
[1]
  HGFs metabolic activity / cell viability (MTT): did not show any significant difference
[1]; 50 µM
  HGFs cell viability (MTT): statistically reduce HGF viability

## COc1cc(OC)cc(S(=O)(=O)Nc2ccc(/C=C/c3ccccc3)cc2)c1 [1f]
[1]
  HGFs metabolic activity / cell viability (MTT): significantly decreased the HGFs metabolic activity
[1]; 50 µM
  HGFs cell viability (MTT): statistically reduce HGF viability

## Oc1ccc(/C=C/c2cc(O)cc(O)c2)cc1 [RSV, trans-3,5,4′-trihydroxystilbene, reference compound]
HGFs
  HGFs morphology: appeared as irregular triangles, polygons, and other shapes
eNOS mRNA in HUVECs
  eNOS mRNA expression: induced eNOS mRNA expression

## O=S(=O)(Cc1ccccc1)Nc1ccc(/C=C/c2ccccc2)cc1 [1i]
[1]
  HGFs metabolic activity / cell viability (MTT): did not show any significant difference
[1]; 20 µM
  HGFs cell viability (MTT): statistically significant reduction in cell viability
[1]; 50 µM
  HGFs cell viability (MTT): statistically reduce HGF viability

## CS(=O)(=O)Nc1ccc(/C=C/c2ccccc2)cc1 [1g]
[1]
  HGFs metabolic activity / cell viability (MTT): significantly decreased the HGFs metabolic activity
[1]; 20 µM
  HGFs cell viability (MTT): statistically significant reduction in cell viability
[1]; 50 µM
  HGFs cell viability (MTT): statistically reduce HGF viability

## O=[N+]([O-])c1cccc(S(=O)(=O)Nc2ccc(/C=C/c3ccccc3)cc2)c1 [1b]
[1]
  HGFs metabolic activity / cell viability (MTT): significantly decreased the HGFs metabolic activity
[1]; 50 µM
  HGFs cell viability (MTT): statistically reduce HGF viability

## O=S(=O)(Nc1ccc(/C=C/c2ccccc2)cc1)c1ccccc1 [1a]
[1]
  HGFs metabolic activity / cell viability (MTT): did not show any significant difference
[1]; 20 µM
  HGFs cell viability (MTT): slight increase in HGF viability
[1]; 50 µM
  HGFs cell viability (MTT): no statistically significant differences

## N#Cc1ccc(S(=O)(=O)Nc2ccc(/C=C/c3ccccc3)cc2)cc1 [1e]
[1]
  HGFs metabolic activity / cell viability (MTT): significantly decreased the HGFs metabolic activity
[1]; 20 µM
  HGFs cell viability (MTT): statistically significant reduction in cell viability
[1]; 50 µM
  HGFs cell viability (MTT): statistically reduce HGF viability
